Source: the CheMixHub viscosity set
Values joined by “and” are separate entries in the source; they are usually repeats but may differ in a detail not shown here. Equal values may be shown once.

Test: xn = mol fraction of the nth substance listed

CCCCC + CCCCCC
298.15 K, 101.33 kPa
Settings	viscosity [mPa·s]
x1 = 0.1045	0.2898
x1 = 0.2098	0.2802
x1 = 0.3107	0.2724
x1 = 0.4113	0.2641
x1 = 0.5105	0.2574
x1 = 0.6025	0.2497
x1 = 0.7041	0.2432
x1 = 0.7966	0.2364
x1 = 0.8997	0.228

CCCCCCCO + CCCCCC
viscosity [mPa·s], 101.33 kPa
Settings	303.15 K	313.15 K
x1 = 0.0308	0.2866	0.2693
x1 = 0.0919	0.3254	0.294
x1 = 0.1567	0.3966	0.3446
x1 = 0.2496	0.5095	0.4493
x1 = 0.4018	0.7642	0.6611
x1 = 0.4831	0.9566	0.7663
x1 = 0.578	1.248	0.9882
x1 = 0.6838	1.776	1.348
x1 = 0.7882	2.479	1.832
x1 = 0.8946	3.522	2.473
x1 = 0.9642	4.384	3.175

C1CCCCCCC1 + CCCCCCC
Settings	viscosity [mPa·s]
308.15 K, 101 kPa, x2 = 0.1897	1.125

CCCCC + CCCCCCC
298.15 K, 101.33 kPa
Settings	viscosity [mPa·s]
x1 = 0.1046	0.3691
x1 = 0.2024	0.3579
x1 = 0.3087	0.3325
x1 = 0.4077	0.3173
x1 = 0.4979	0.3004
x1 = 0.5999	0.2848
x1 = 0.6624	0.2762
x1 = 0.7972	0.254
x1 = 0.8929	0.242

CCCCCCCCCC + CCCCCCC
Settings	viscosity
293.15 K, 100 kPa, x1 = 0.3	0.506 mPa·s
293.15 K, 101.33 kPa, x2 = 0.321	0.725 mPa·s
293.15 K, 101.33 kPa, x2 = 0.587	0.584 mPa·s
293.15 K, 101.33 kPa, x2 = 0.81	0.489 mPa·s
294.62 K, 101.3 kPa, x2 = 0.49	0.64 mPa·s
298.15 K, 101.33 kPa, x2 = 0.0985	0.8051 mPa·s
298.15 K, 101.33 kPa, x2 = 0.2017	0.745 mPa·s
298.15 K, 101.33 kPa, x2 = 0.3053	0.6806 mPa·s
298.15 K, 101.33 kPa, x2 = 0.4073	0.6363 mPa·s
298.15 K, 101.33 kPa, x2 = 0.5076	0.5891 mPa·s
298.15 K, 101.33 kPa, x2 = 0.6069	0.5466 mPa·s
298.15 K, 101.33 kPa, x2 = 0.7083	0.4983 mPa·s
298.15 K, 101.33 kPa, x2 = 0.8023	0.4575 mPa·s
298.15 K, 101.33 kPa, x2 = 0.903	0.4242 mPa·s
303.11 K, 100 kPa, x2 = 0.77	0.4628 mPa·s and 0.4626 mPa·s
303.15 K, 101.3 kPa, x2 = 0.77	0.4628 mPa·s
303.17 K, 100 kPa, x2 = 0.49	0.5761 mPa·s and 0.5762 mPa·s
303.17 K, 101.3 kPa, x2 = 0.49	0.5761 mPa·s
313.11 K, 101.3 kPa, x2 = 0.49	0.5111 mPa·s
313.15 K, 100 kPa, x1 = 0.3	0.393 mPa·s
313.18 K, 101.3 kPa, x2 = 0.77	0.4127 mPa·s
323.15 K, 100 kPa, x2 = 0.49	0.4588 mPa·s
323.15 K, 101.3 kPa, x2 = 0.49	0.4588 mPa·s

CCCCCCCO + CCCCCCC
viscosity [mPa·s], 101.33 kPa
Settings	298.15 K	303.15 K	308.15 K	313.15 K
x1 = 0.0373	–	0.402	–	0.3519
x1 = 0.0508	0.4239	–	0.3784	–
x1 = 0.1004	0.4638	–	0.4111	–
x1 = 0.104	–	0.469	–	0.4152
x1 = 0.1707	–	0.543	–	0.4918
x1 = 0.2012	0.5765	–	0.5039	–
x1 = 0.2845	–	0.703	–	0.6087
x1 = 0.3013	0.7282	–	0.6241	–
x1 = 0.4001	0.946	–	0.7914	–
x1 = 0.4114	–	0.901	–	0.7971
x1 = 0.4992	1.243	–	1.023	–
x1 = 0.5113	–	1.21	–	0.9558
x1 = 0.5981	1.702	–	1.346	–
x1 = 0.62	–	1.671	–	1.318
x1 = 0.699	2.261	–	1.821	–
x1 = 0.7301	–	2.236	–	1.681
x1 = 0.8089	–	2.801	–	2.082
x1 = 0.85	3.616	–	2.806	–
x1 = 0.9029	–	3.742	–	2.728
x1 = 0.9456	4.749	–	3.608	–
x1 = 0.9699	–	4.553	–	3.322

CCCCC + CCCCCCCC
Settings	viscosity [mPa·s]
297.95 K, 101 kPa, x1 = 0.1048	0.4645
297.95 K, 101 kPa, x1 = 0.1992	0.4431
297.95 K, 101 kPa, x1 = 0.3044	0.4126
297.95 K, 101 kPa, x1 = 0.4015	0.3847
297.95 K, 101 kPa, x1 = 0.5066	0.3498
297.95 K, 101 kPa, x1 = 0.5998	0.3216
297.95 K, 101 kPa, x1 = 0.7095	0.2978
297.95 K, 101 kPa, x1 = 0.8097	0.2723
297.95 K, 101 kPa, x1 = 0.8946	0.2443
298.15 K, 101.33 kPa, x1 = 0.1059	0.4719
298.15 K, 101.33 kPa, x1 = 0.1973	0.4439
298.15 K, 101.33 kPa, x1 = 0.3019	0.4091
298.15 K, 101.33 kPa, x1 = 0.404	0.3806
298.15 K, 101.33 kPa, x1 = 0.5019	0.3545
298.15 K, 101.33 kPa, x1 = 0.6046	0.3228
298.15 K, 101.33 kPa, x1 = 0.7015	0.2963
298.15 K, 101.33 kPa, x1 = 0.8026	0.2702
298.15 K, 101.33 kPa, x1 = 0.9035	0.2454
313.05 K, 101 kPa, x1 = 0.1048	0.3939
313.05 K, 101 kPa, x1 = 0.1992	0.3894
313.05 K, 101 kPa, x1 = 0.3044	0.3676
313.05 K, 101 kPa, x1 = 0.4015	0.3504
313.05 K, 101 kPa, x1 = 0.5066	0.3205
313.05 K, 101 kPa, x1 = 0.5998	0.2816

CCCCC + CCCCCCCCC
298.15 K, 101.33 kPa
Settings	viscosity [mPa·s]
x1 = 0.0925	0.611
x1 = 0.1995	0.5548
x1 = 0.308	0.5016
x1 = 0.403	0.4556
x1 = 0.4861	0.4179
x1 = 0.6016	0.3691
x1 = 0.702	0.3268
x1 = 0.8033	0.2892
x1 = 0.904	0.2538

C1CCCCCCC1 + CCCCCCCCCC
viscosity [mPa·s], 101 kPa
Settings	x1 = 0.0657	x1 = 0.1971	x1 = 0.282	x1 = 0.386	x1 = 0.508	x1 = 0.5849	x1 = 0.7031	x1 = 0.7984	x1 = 0.9053
308.15 K	0.7647	0.829	0.881	0.9331	1.026	1.093	1.213	1.345	1.55
313.15 K	0.7178	0.7776	0.819	0.8631	0.9523	1.006	1.12	1.24	1.406
